pIC50, pKi: −log10 of the molar value.

For orientation: pIC50 means the IC50 on a negative log10 scale, so that one unit is a factor of ten. Broadly, the pKi is −log10 of the Ki, conventionally taken in molar units.

In assay [1] the target is 5-hydroxytryptamine receptor 4 (Cavia porcellus, UniProt O70528). The assay is classed as cell membranes, Dunkin-Hartley, Striatum, Membrane. Further: in other assays of this panel Not Active means under 50% inhibition at 10 µM.
Assay [2] concerns the target Sigma non-opioid intracellular receptor 1 (Homo sapiens, UniProt Q99720). The assay can be described thus: DRUGMATRIX: Sigma1 radioligand binding (ligand: [3H] Haloperidol). The assay is classed as cell membranes, Jurkat, Membrane. As to conditions: Not Active = under 50% inhibition at 10 µM; for IC50: jurkat; for pIC50: read-out: IC50; for pKi: read-out: Ki.
Assay [3] addresses D(3) dopamine receptor (Homo sapiens, UniProt P35462). The assay can be described thus: DRUGMATRIX: Dopamine D3 radioligand binding (ligand: [3H] Spiperone). The assay is classed as cell membranes, CHO, Membrane. As to conditions: for IC50: cho.
The nature of assay [4]: DRUGMATRIX: Nicotinic Acetylcholine radioligand binding (ligand: [125I] Epibatidine). The assay is classed as cell membranes, Membrane. The note with it: imr-32; Not Active = under 50% inhibition at 10 µM.
The target in assay [5] is cGMP-specific 3',5'-cyclic phosphodiesterase (Homo sapiens, UniProt O76074). In words: DRUGMATRIX: Phosphodiesterase PDE5 enzyme inhibition (substrate: [3H]cGMP + cGMP). The format is tissue-based. The note with it: platelet; Not Active = under 50% inhibition at 10 µM.
The target in assay [6] is Tyrosine-protein kinase Lck (Homo sapiens, UniProt P06239). In words: DRUGMATRIX: Protein Tyrosine Kinase, LCK enzyme inhibition (substrate: Poly(Glu:Tyr)). The assay is classed as cell-based, Insect cells. As to conditions: insect cells; Not Active = under 50% inhibition at 10 µM.
Chain of Tyrosine-protein kinase Lck (P06239 whole entry): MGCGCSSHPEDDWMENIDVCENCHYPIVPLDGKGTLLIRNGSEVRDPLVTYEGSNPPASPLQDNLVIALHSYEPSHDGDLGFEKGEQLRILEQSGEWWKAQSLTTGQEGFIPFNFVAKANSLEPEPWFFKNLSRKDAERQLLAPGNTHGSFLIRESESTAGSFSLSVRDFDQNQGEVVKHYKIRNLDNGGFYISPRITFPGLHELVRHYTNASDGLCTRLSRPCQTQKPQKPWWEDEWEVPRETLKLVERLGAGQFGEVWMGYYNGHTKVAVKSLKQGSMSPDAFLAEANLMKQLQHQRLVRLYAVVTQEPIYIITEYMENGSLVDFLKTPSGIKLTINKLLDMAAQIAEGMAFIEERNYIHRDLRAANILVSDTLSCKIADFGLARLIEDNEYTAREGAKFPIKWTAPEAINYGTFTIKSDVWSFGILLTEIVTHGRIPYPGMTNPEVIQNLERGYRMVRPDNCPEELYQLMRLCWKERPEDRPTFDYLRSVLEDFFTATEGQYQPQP

Chain of D(3) dopamine receptor (P35462 whole entry): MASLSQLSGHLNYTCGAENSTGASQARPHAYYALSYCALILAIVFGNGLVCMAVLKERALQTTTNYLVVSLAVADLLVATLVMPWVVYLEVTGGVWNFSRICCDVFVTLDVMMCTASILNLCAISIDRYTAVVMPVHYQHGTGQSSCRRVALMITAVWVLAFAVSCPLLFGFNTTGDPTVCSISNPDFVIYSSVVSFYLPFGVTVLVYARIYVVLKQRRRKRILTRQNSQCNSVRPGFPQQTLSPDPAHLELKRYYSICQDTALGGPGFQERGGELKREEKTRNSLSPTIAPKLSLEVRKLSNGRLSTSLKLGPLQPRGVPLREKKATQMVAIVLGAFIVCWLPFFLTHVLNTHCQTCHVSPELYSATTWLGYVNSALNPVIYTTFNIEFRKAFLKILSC
Chain of Sigma non-opioid intracellular receptor 1 (Q99720 whole entry): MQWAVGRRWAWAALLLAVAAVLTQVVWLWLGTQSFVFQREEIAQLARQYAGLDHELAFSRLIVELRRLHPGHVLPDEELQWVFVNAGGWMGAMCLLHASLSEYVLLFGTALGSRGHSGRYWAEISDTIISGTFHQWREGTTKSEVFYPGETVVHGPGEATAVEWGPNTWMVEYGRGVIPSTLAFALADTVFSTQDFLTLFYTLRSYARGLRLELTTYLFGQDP
Chain of 5-hydroxytryptamine receptor 4 (O70528 whole entry): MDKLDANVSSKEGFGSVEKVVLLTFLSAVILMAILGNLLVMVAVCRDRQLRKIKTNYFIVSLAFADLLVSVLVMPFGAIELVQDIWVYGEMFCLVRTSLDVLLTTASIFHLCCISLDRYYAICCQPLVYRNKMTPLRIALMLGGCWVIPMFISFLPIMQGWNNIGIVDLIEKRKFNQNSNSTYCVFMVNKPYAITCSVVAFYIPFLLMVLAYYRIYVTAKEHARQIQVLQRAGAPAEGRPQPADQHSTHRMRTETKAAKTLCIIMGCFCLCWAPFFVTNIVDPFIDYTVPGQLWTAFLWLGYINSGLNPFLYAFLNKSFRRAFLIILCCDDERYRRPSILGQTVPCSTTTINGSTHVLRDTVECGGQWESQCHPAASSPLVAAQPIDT

With `COc1cc(N)nc2[nH]c(-c3ccc(F)cc3)c(-c3ccncc3)c12`, the IC50 entry in assay [1], in assay [2], in assay [3], in assay [4] and in assay [5] was “Not Active” in each case. Also, the Ki entry in assay [4] is “Not Active”.

For `CNS(=O)(=O)Cc1ccc2[nH]cc(CCN(C)C)c2c1`, the IC50 entry in assay [1], in assay [2], in assay [3], in assay [4], in assay [5] and in assay [6] was “Not Active” in each case. Also, the Ki entry in assay [4] was “Not Active”.

For `CCCc1nn(C)c2c(=O)[nH]c(-c3cc(S(=O)(=O)N4CCN(C)CC4)ccc3OCC)nc12`, the IC50 result in assay [1], in assay [2], in assay [3], in assay [4] and in assay [6] was “Not Active” in each case. In addition, in assay [4], the Ki entry is recorded as “Not Active”.

Take `COc1ccc(/C=C/C(=O)Nc2ccccc2C(=O)O)cc1OC`: the IC50 entry in assay [1], in assay [2], in assay [3], in assay [4], in assay [5] and in assay [6] was “Not Active” each time. For the same compound, the Ki result in assay [4] is recorded as “Not Active”.

Take `CCOC(N)=O`: the IC50 entry in assay [1], in assay [2], in assay [3], in assay [4], in assay [5] and in assay [6] was “Not Active” throughout. The Ki entry in assay [4] is given as “Not Active”.

Regarding `CC(=O)Nc1nnc(S(N)(=O)=O)s1` [ACETAZOLAMIDE], the IC50 entry in assay [1], in assay [2], in assay [3], in assay [5] and in assay [6] was “Not Active” each time.

Take `O=c1[nH]c2ccccc2n1CCCN1CCC(n2c(=O)[nH]c3cc(Cl)ccc32)CC1` [DOMPERIDONE]: the IC50 result in assay [1], in assay [2], in assay [5] and in assay [6] was “Not Active” in each case.

Consider `CC1=C(CC(=O)O)c2cc(F)ccc2/C1=C\c1ccc(S(C)(=O)=O)cc1` [EXISULIND], for which the IC50 result in assay [1], in assay [2], in assay [3], in assay [4], in assay [5] and in assay [6] was “Not Active” in each case. Also, the Ki result in assay [4] is recorded as “Not Active”.

For `CC(C)OC(=O)C(C)(C)Oc1ccc(C(=O)c2ccc(Cl)cc2)cc1` [FENOFIBRATE], the IC50 entry in assay [1], in assay [2], in assay [5] and in assay [6] was “Not Active” throughout.

On to `OCCN1CCN(CCCN2c3ccccc3Sc3ccc(C(F)(F)F)cc32)CC1` [FLUPHENAZINE], for which the IC50 entry in assay [1], in assay [5] and in assay [6] was “Not Active” in each case. Further, in assay [2], the negative logarithm of the IC50 (pIC50) was 7.70. In assay [2], the pKi was 8.07.

In the case of `CN1C2CCCC1CC(NC(=O)c1nn(C)c3ccccc13)C2` (centres undefined) [GRANISETRON], the IC50 entry in assay [1], in assay [2], in assay [3], in assay [5] and in assay [6] was “Not Active” each time.

Regarding `Nc1nc2c(c(=O)[nH]1)N(C=O)C(CNc1ccc(C(=O)N[C@@H](CCC(=O)O)C(=O)O)cc1)CN2` (some centres undefined) [LEUCOVORIN], the IC50 entry in assay [1], in assay [2], in assay [3], in assay [4], in assay [5] and in assay [6] was “Not Active” in each case. Further, the Ki result in assay [4] is “Not Active”.

As to `C[C@@H](O)[C@H]1C(=O)N2C(C(=O)O)=C(S[C@@H]3CN[C@H](C(=O)N(C)C)C3)[C@H](C)[C@H]12` [MEROPENEM], the IC50 result in assay [1], in assay [2], in assay [3], in assay [4], in assay [5] and in assay [6] was “Not Active” each time. Besides, the Ki result in assay [4] was “Not Active”.

On to `CC[C@@H](CO)NC(=O)[C@@H]1C=C2c3cccc4c3c(cn4C)C[C@H]2N(C)C1` [METHYSERGIDE], for which the IC50 entry in assay [1], in assay [5] and in assay [6] was “Not Active” in each case. In addition, the negative logarithm of the IC50 (pIC50) in assay [3] (read-out: IC50) is 6.76. In addition, in assay [3] (read-out: Ki), the negative-log Ki (pKi) is 7.23.

`CCN(CC)CC#CCOC(=O)C(O)(c1ccccc1)C1CCCCC1` (centres undefined) [OXYBUTYNIN]: the IC50 entry in assay [1], in assay [5] and in assay [6] was “Not Active” throughout. The pIC50 in assay [2] is 7.62. Moreover, the pKi in assay [2] is 7.99.

On to `O=P(O)(O)C(O)(Cc1cccnc1)P(=O)(O)O` [RISEDRONIC ACID], for which the IC50 result in assay [1], in assay [2], in assay [3], in assay [4], in assay [5] and in assay [6] was “Not Active” in each case. For the same compound, in assay [4], the Ki entry is “Not Active”.

With `CN(CCOc1ccc(CC2SC(=O)NC2=O)cc1)c1ccccn1` (centres undefined) [ROSIGLITAZONE], the IC50 result in assay [1], in assay [2], in assay [3], in assay [4], in assay [5] and in assay [6] was “Not Active” each time. In addition, the Ki entry in assay [4] was “Not Active”.

With `C=C(C)[C@H]1Cc2c(ccc3c2O[C@@H]2COc4cc(OC)c(OC)cc4[C@@H]2C3=O)O1` [ROTENONE], the IC50 entry in assay [1], in assay [2], in assay [3], in assay [4], in assay [5] and in assay [6] was “Not Active” throughout. Moreover, in assay [4], the Ki result is given as “Not Active”.

As to `C#CCN(C)[C@H](C)Cc1ccccc1` [SELEGILINE], the IC50 result in assay [1], in assay [2], in assay [3], in assay [4], in assay [5] and in assay [6] was “Not Active” each time. Besides, in assay [4], the Ki entry was “Not Active”.

On to `CO[C@H]1C[C@@H]2CC[C@@H](C)[C@@](O)(O2)C(=O)C(=O)N2CCCC[C@H]2C(=O)O[C@H]([C@H](C)C[C@@H]2CC[C@@H](O)[C@H](OC)C2)CC(=O)[C@H](C)/C=C(\C)[C@@H](O)[C@@H](OC)C(=O)[C@H](C)C[C@H](C)/C=C/C=C/C=C/1C` [SIROLIMUS], for which the IC50 result in assay [1], in assay [2], in assay [3], in assay [4], in assay [5] and in assay [6] was “Not Active” in each case. The Ki entry in assay [4] is “Not Active”.

Take `CN[C@@H]1[C@H](O)[C@H](NC)[C@H]2O[C@@]3(O)C(=O)C[C@@H](C)O[C@H]3O[C@@H]2[C@H]1O` [SPECTINOMYCIN]: the IC50 result in assay [1], in assay [2], in assay [3], in assay [4], in assay [5] and in assay [6] was “Not Active” throughout. Besides, in assay [4], the Ki result is given as “Not Active”.

For `O=c1n(CCCN2CCN(c3cccc(Cl)c3)CC2)nc2ccccn12` [TRAZODONE], the IC50 result in assay [1], in assay [5] and in assay [6] was “Not Active” in each case. Moreover, the pIC50 in assay [2] was 5.66. Further, the pKi in assay [2] is 6.03.

(Values after ChEMBL document CHEMBL1909046, “DrugMatrix in vitro pharmacology data”.)
